The text below walks through data of US20110306621A1, “ACYLGUANIDINE DERIVATIVES” (priority 2009, published 2011).

The target of the assay is T1, human 5-HT5A receptor (Homo sapiens, UniProt P47898).
T1 construct: expressed in transfected cells; membranes used
T1 sequence (P47898 whole entry): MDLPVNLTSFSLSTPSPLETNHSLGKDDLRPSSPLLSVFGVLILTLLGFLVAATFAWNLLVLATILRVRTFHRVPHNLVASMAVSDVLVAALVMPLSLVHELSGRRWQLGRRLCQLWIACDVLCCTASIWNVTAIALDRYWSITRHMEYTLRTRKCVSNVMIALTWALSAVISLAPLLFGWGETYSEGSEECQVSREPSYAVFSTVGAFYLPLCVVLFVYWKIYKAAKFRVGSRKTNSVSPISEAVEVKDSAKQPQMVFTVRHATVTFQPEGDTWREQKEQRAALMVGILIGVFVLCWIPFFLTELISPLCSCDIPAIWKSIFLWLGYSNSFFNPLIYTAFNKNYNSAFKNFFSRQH
The experiment in a line: Test on a human 5-HT5A receptor binding inhibition ([3H]5-CT). The conditions noted are these: membrane from HEK293 cells for forced expression of human 5-HT5A receptor; Ki calculated from IC50 and Kd of [3H]5-CT (4.95 nM). The method, then: The ORF (open reading frame; protein coding region) of a human 5-HT5A receptor (Genbank AF498985) was cloned from a human hippocampus cDNA library, and then inserted into a pCR2.1 vector (Invitrogen), and Escherichia coli containing the plasmid was cultured in a large amount. Next, the full-length cDNA sequence of the human 5-HT5A receptor was analyzed, and recombined into a pcDNA3.1 vector (Invitrogen) as an expression vector and cultured in a large amount. HEK293 established cells (ATCC) derived from the human fetal kidney were seeded, the expression plasmid (1 μg) obtained above were added thereto with LIPOFECTAMINE 2000 (Invitrogen; 2 μl), the gene was transfected into HEK293 cells, and the expression cells were screened with a drug-resistant marker, Geneticin (G418 sulfate 500 μg/ml; Kanto Chemical Co., Inc.). Thus prepared recombinant cells which expressed the gene were cultured in a medium containing D-MEM (Dulbecco's modified eagle medium, Sigma), 10% FCS (Fetal calf serum: fetal bovine serum), 1% Pc./Sm (Penicillin/Streptomycin, Invitrogen), and 500 μg/ml G418 for 3 days. These experimental operations followed a manual for gene operation experiment and an instruction appended in a reagent, and the like, such as a known method (Sambrook, J. et al, Molecular Cloning-A Laboratory Manual”, Cold Spring Harabor laboratory, NY, 1989).
HEK293 cells for forced expressions of a human 5-HT5A receptor were cultured in a F500 plate, and scraped with a scraper. After centrifugation, the precipitate was collected, and an incubation buffer (50 mM Tris (HCl) (pH 7.4), 10 mM MgSO4, and 0.5 mM EDTA (ethylenediamine tetraacetic acid)) was added thereto. After homogenization, it was further centrifuged, and the incubation buffer was added to the precipitate, followed by thoroughly suspending. The operation was repeated, and protein concentration was measured, thereby completing preparation of the membrane.
A solution of the compound to be tested and 100 μM 5-CT (5-carboxamidetriptamine) in DMSO was added to a 96-well plate at 2 μl/well, suspended in an incubation buffer, and a membrane from HEK293 cells for forced expressions of a human 5-HT5A receptor prepared at 200 μg/ml was added at 100 μl/well. After incubation at room temperature for 15 minutes, a [^3H]5-CT solution (2 nM [^3H]5-CT, incubation buffer) was added thereto at 100 μl/well.
Separately, 100 μl of the solution was distributed into a liquid scintillation vial, and 2 ml of Aquasol II (registered trademark) was added thereto, followed by stirring. Then, radioactivity was measured by a liquid scintillation counter. It was incubated at 37° C. for 60 minutes. The reaction mixture was sucked into 96-well GF/C filter plate that had been pre-treated with 0.2% polyethyleneimine, and washed six times with an ice-cooled, 50 mM Tris (pH 7.5) buffer. The GF/C filter plate was dried.
Microscint TMPS (registered trademark) was added thereto at 40 μl/well. Radioactivity remaining on the GF/C filter plate was measured by a top counter.
The [^3H]5-CT binding inhibiting activity by the compound to be tested in each experiment was determined as an IC50 value with a radioactivity upon addition of DMSO alone being 0% inhibition, and a radioactivity upon addition of 1 μM 5-CT being 100% inhibition. Separately, Ki values were calculated from the Kd value of the [^3H]5-CT determined from Scatchard analysis, by the following equation.
Ki=IC50 (1+Concentraion of ligand added/Kd (4.95 nM))
Consider `COc1cccc(C#N)c1-c1cccc2ccc(C(=O)N=C(N)N)cc12` [Example 30], for which the inhibition constant Ki (in general, the equilibrium dissociation constant of an inhibitor or competing ligand from its target) was 3 to 30 nM.

For the molecule `NC(N)=NC(=O)c1ccc2cccc(-c3c(F)cncc3F)c2c1` [Example 31], the Ki is 0.3 to 3 nM.

On to `NC(N)=NC(=O)c1ccc2cccc(-c3cccc4cnccc34)c2c1` [Example 128], for which the inhibition constant Ki is 0.3 to 3 nM.

For `Cn1ncc(Cl)c1-c1cccc2ccc(C(=O)N=C(N)N)cc12` [Example 91], the Ki was 3 to 30 nM.

As for `N#Cc1cnc(-c2cccc3ccc(C(=O)N=C(N)N)cc23)c(Cl)c1` [Example 196], the Ki was 3 to 30 nM.

Turning to `Cc1ccc(-c2cccc3ccc(C(=O)N=C(N)N)cc23)c(F)n1` [Example 86], the Ki was 3 to 30 nM.

Turning to `NC(N)=NC(=O)c1ccc2cccc(-c3cc(C(F)(F)F)ccn3)c2c1` [Example 176], the inhibitory constant (Ki) was 30 to 300 nM.

Take `COc1ncccc1-c1c(Cl)ccc2ccc(C(=O)N=C(N)N)cc12` [Example 146]: the inhibition constant (Ki) was 0.3 to 3 nM.

`N#Cc1ccc(-c2c(F)ccc3ccc(C(=O)N=C(N)N)cc23)cc1` [Example 9]: the Ki is 0.3 to 3 nM.

Turning to `NC(N)=NC(=O)c1ccc2cccc(-c3ncc(C(F)(F)F)cc3Cl)c2c1` [Example 194], the inhibition constant (Ki) is 3 to 30 nM.

As to `NC(N)=NC(=O)c1ccc2cccc(-c3c(F)ccc(O)c3F)c2c1` [Example 118], the inhibitory constant (Ki) is 0.3 to 3 nM.

Take `NC(N)=NC(=O)c1ccc2cccc(-c3c[nH]c4ccccc34)c2c1` [Example 173]: the inhibition constant Ki was 3 to 30 nM.

On to `NC(N)=NC(=O)c1ccc2cccc(-c3ncccc3F)c2c1` [Example 135], for which the Ki is 3 to 30 nM.

Turning to `NC(N)=NC(=O)c1ccc2cccc(-c3ccc(Cl)nc3)c2c1` [Example 54], the Ki is 3 to 30 nM.

As to `NC(N)=NC(=O)c1ccc2cccc(-c3ccc(Cl)cc3)c2c1` [Example 89], the Ki is 0.3 to 3 nM.

In the case of `NC(N)=NC(=O)c1ccc2cccc(-c3ccncc3F)c2c1` [Example 25], the Ki is 0.3 to 3 nM.

As to `COc1ccccc1-c1c(Cl)cc(Cl)c2ccc(C(=O)N=C(N)N)cc12` [Example 136], the inhibition constant Ki is 3 to 30 nM.

`NC(N)=NC(=O)c1ccc2cccc(-c3c(F)cc(CO)cc3F)c2c1` [Example 121]: the inhibition constant (Ki) was 0.3 to 3 nM.

Turning to `NC(N)=NC(=O)c1ccc2cccc(-c3c(F)cccc3C3CC3)c2c1` [Example 191], the Ki is 0.3 to 3 nM.

With `N#Cc1ccc(-c2cccc3ccc(C(=O)N=C(N)N)cc23)cc1` [Example 2], the inhibitory constant (Ki) is 0.3 to 3 nM.

As to `CCOc1ncc(Cl)c(-c2cccc3ccc(C(=O)N=C(N)N)cc23)c1Cl` [Example 67], the inhibitory constant (Ki) was 0.3 to 3 nM.

For the molecule `NC(N)=NC(=O)c1ccc2cccc(-c3c(F)cc(F)cc3Cl)c2c1` [Example 140], the inhibition constant Ki was 0.3 to 3 nM.

Consider `NC(N)=NC(=O)c1ccc2cccc(-c3cc(Cl)ccc3F)c2c1` [Example 70], for which the inhibitory constant (Ki) is 0.3 to 3 nM.

In the case of `NC(N)=NC(=O)c1ccc2cccc(-c3ncccc3C(F)(F)F)c2c1` [Example 168], the Ki is 30 to 300 nM.

With `Cc1nc2cccc(-c3cccc4ccc(C(=O)N=C(N)N)cc34)c2o1` [Example 144], the inhibition constant Ki was 3 to 30 nM.

As to `NC(N)=NC(=O)c1ccc2cccc(-c3ccncc3)c2c1` [Example 133], the Ki was 3 to 30 nM.

As to `COc1cccc(Cl)c1-c1cccc2ccc(C(=O)N=C(N)N)cc12` [Example 32], the Ki is 0.3 to 3 nM.

For `NC(N)=NC(=O)c1ccc2cccc(-c3ccccc3F)c2c1` [Example 6], the inhibition constant Ki was 0.3 to 3 nM.

With `N#Cc1cc(F)c(-c2cccc3ccc(C(=O)N=C(N)N)cc23)c(F)c1` [Example 155], the inhibition constant Ki is 0.3 to 3 nM.

For `NC(N)=NC(=O)c1ccc2cccc(-c3cc(Cl)ncc3F)c2c1` [Example 197], the Ki is 0.3 to 3 nM.

As to `NC(N)=NC(=O)c1ccc2cccc(-c3cccc(F)c3O)c2c1` [Example 105], the inhibition constant Ki was 0.3 to 3 nM.

On to `Cc1cc(-c2cccc3ccc(C(=O)N=C(N)N)cc23)ccn1` [Example 141], for which the Ki was 3 to 30 nM.

On to `N#Cc1ccc(-c2cccc3ccc(C(=O)N=C(N)N)cc23)nc1` [Example 184], for which the inhibition constant Ki is 3 to 30 nM.

As for `COc1cc(C#N)ccc1-c1c(Cl)ccc2ccc(C(=O)N=C(N)N)cc12` [Example 145], the Ki was 0.3 to 3 nM.

For `NC(N)=NC(=O)c1ccc2cccc(-c3cccc4c3OC(F)(F)O4)c2c1` [Example 115], the inhibitory constant (Ki) was 3 to 30 nM.

For the molecule `COCc1cc(F)c(-c2cccc3ccc(C(=O)N=C(N)N)cc23)c(F)c1` [Example 120], the Ki was 3 to 30 nM.

In the case of `COc1cc(C#N)ccc1-c1cccc2ccc(C(=O)N=C(N)N)cc12` [Example 3], the Ki was 0.3 to 3 nM.

`NC(N)=NC(=O)c1ccc2cccc(-c3ccc(F)cc3Cl)c2c1` [Example 60]: the Ki was 0.3 to 3 nM.

On to `Cc1nc(-c2ccccc2)sc1-c1cccc2ccc(C(=O)N=C(N)N)cc12` [Example 122], for which the Ki is 3 to 30 nM.

On to `NC(N)=NC(=O)c1ccc2cccc(-c3cccc4ccncc34)c2c1` [Example 167], for which the Ki was 0.3 to 3 nM.

As to `Cc1cc(-c2cccc3ccc(C(=O)N=C(N)N)cc23)cc(C)n1` [Example 166], the Ki is 3 to 30 nM.

For `NC(N)=NC(=O)c1ccc2cccc(-c3ccccn3)c2c1` [Example 201], the Ki was 3 to 30 nM.

For `NC(N)=NC(=O)c1ccc2cccc(-c3ccnc(C(F)(F)F)n3)c2c1` [Example 187], the Ki is 3 to 30 nM.

As for `NC(N)=NC(=O)c1ccc2cccc(-c3ccccc3OC(F)F)c2c1` [Example 93], the Ki was 3 to 30 nM.

Regarding `NC(N)=NC(=O)c1ccc2cccc(-c3c(Cl)cccc3Cl)c2c1` [Example 58], the inhibition constant (Ki) was 0.3 to 3 nM.

With `COc1cccnc1-c1cccc2ccc(C(=O)N=C(N)N)cc12` [Example 195], the inhibitory constant (Ki) was 30 to 300 nM.

`N#Cc1cccc(F)c1-c1cccc2ccc(C(=O)N=C(N)N)cc12` [Example 26]: the Ki is 0.3 to 3 nM.

`COc1ccc(-c2cccc3ccc(C(=O)N=C(N)N)cc23)c(OC)c1` [Example 5]: the Ki is 0.3 to 3 nM.

On to `NC(N)=NC(=O)c1ccc2cccc(-c3c(Cl)cncc3Cl)c2c1` [Example 45], for which the inhibition constant Ki is 0.3 to 3 nM.

`NC(N)=NC(=O)c1ccc2ccc(Cl)c(-c3ccncc3)c2c1` [Example 147]: the Ki was 0.3 to 3 nM.

Take `NC(N)=NC(=O)c1ccc2cccc(-c3ccc(F)cn3)c2c1` [Example 134]: the Ki was 3 to 30 nM.

For the molecule `NC(N)=NC(=O)c1ccc2cccc(-c3ccnc(C4CC4)c3C3CC3)c2c1` [Example 202], the inhibition constant (Ki) was 3 to 30 nM.

Take `NC(N)=NC(=O)c1ccc2cccc(-c3ccccc3C3CC3)c2c1` [Example 138]: the Ki was 0.3 to 3 nM.

In the case of `NC(N)=NC(=O)c1ccc2cccc(-c3cccc4c3OCCO4)c2c1` [Example 28], the Ki is 3 to 30 nM.

For `COc1ccc(-c2cccc3ccc(C(=O)N=C(N)N)cc23)c(C#N)c1` [Example 72], the Ki was 3 to 30 nM.

For `NC(N)=NC(=O)c1ccc2cccc(-c3ncccc3Cl)c2c1` [Example 108], the Ki is 3 to 30 nM.

Regarding `NC(N)=NC(=O)c1ccc2ccc(Cl)c(-c3ccncc3Cl)c2c1` [Example 157], the inhibition constant (Ki) is 0.3 to 3 nM.

For `NC(N)=NC(=O)c1ccc2cccc(C3CC3)c2c1` [Example 103], the inhibition constant Ki is 3 to 30 nM.

For `NC(N)=NC(=O)c1ccc2cccc(-c3ccc(Cl)nc3Cl)c2c1` [Example 37], the Ki is 3 to 30 nM.

`Cc1c(-c2cccc3ccc(C(=O)N=C(N)N)cc23)ncnc1C1CC1` [Example 193]: the inhibition constant Ki was 30 to 300 nM.

On to `Cc1ccc2ccc(C(=O)N=C(N)N)cc2c1-c1ccccc1O` [Example 162], for which the Ki was 3 to 30 nM.

Consider `N#Cc1ccccc1-c1cccc2ccc(C(=O)N=C(N)N)cc12` [Example 20], for which the Ki is 3 to 30 nM.

As to `NC(N)=NC(=O)c1ccc2cccc(-c3c(O)cc(F)cc3F)c2c1` [Example 131], the inhibition constant Ki is 0.3 to 3 nM.

Turning to `N#Cc1cc(F)ccc1-c1cccc2ccc(C(=O)N=C(N)N)cc12` [Example 16], the Ki is 3 to 30 nM.
